# Residues, ends and D or L forms follow the SMILES beside them.
# Experiments:
# coccidiosis = conditions: alone; Science 122, 244 (1955); cited from earlier work
# [1] = tested on: Culture A80438 (Streptomyces bobili NRRL 15971); assay: Antibiotic sensitivity discs on seeded ISP No. 2 agar plates; conditions: sensitivity disc
# S. bobili = conditions: published descriptions; cited from earlier work
# [2] = tested on: A80438 (Streptomyces bobili NRRL 15971); assay: Streptomycin inhibition (taxonomic comparison); conditions: culture A80438
# [3] = tested on: Culture A80438 (Streptomyces bobili NRRL 15971); assay: Resistance to lysozyme; assay type: cell-based
# Experimental: Resistance to lysozyme was measured by methods recommended by Gordon and Barnett [R. E. Gordon and D. A. Barnett, "Resistance to Rifampin and Lysozyme of Strains of Some Species of Mycobacterium and Nocardia as a Taxonomic Tool", Int. J. Syst. Bacteriol. 27, 176-178 (1977)].
compound,measurement,setting,value
"O=C(Nc1ccc([N+](=O)[O-])cc1)Nc1ccc([N+](=O)[O-])cc1 [4,4'-dinitrocarbanilide]",Anticoccidial activity,coccidiosis,exhibits anticoccidial activity
"CC[C@H](C)[C@H](N)C1=N[C@H](C(=O)N[C@@H](CC(C)C)C(=O)N[C@H](CCC(=O)O)C(=O)N[C@H](C(=O)N[C@H]2CCCCNC(=O)[C@H](CC(N)=O)NC(=O)[C@@H](CC(=O)O)NC(=O)[C@H](Cc3cnc[nH]3)NC(=O)[C@@H](Cc3ccccc3)NC(=O)[C@H]([C@@H](C)CC)NC(=O)[C@@H](CCCN)NC2=O)[C@@H](C)CC)CS1 [bacitracin] (HELM PEPTIDE1{[CC[C@H](C)[C@H](N)C1=N[C@H](C(=O)[*:2])CS1].L.[dE].I.K.[NCCC[C@@H](N[*:1])C(=O)[*:2]].I.[dF].H.[dD].N}$PEPTIDE1,PEPTIDE1,5:R3-11:R2$$$V2.0)",Resistance/sensitivity of culture A80438,[1]; 10 units,sensitive
CC(=O)OCC1=C(C(=O)O)N2C(=O)[C@@H](NC(=O)Cc3cccs3)[C@H]2SC1 [cephalothin],Resistance/sensitivity of culture A80438,[1]; 30 μg,resistant
CCC[C@@H]1C[C@@H](C(=O)N[C@@H]([C@H]2O[C@H](SC)[C@H](O)[C@@H](O)[C@H]2O)[C@@H](C)O)N(C)C1 [lincomycin],Resistance/sensitivity of culture A80438,[1]; 2 μg,resistant
CO[C@H]1C[C@H](O[C@H]2[C@H](C)[C@@H](O[C@@H]3O[C@H](C)C[C@H](N(C)C)[C@H]3O)[C@@H](C)C[C@@]3(CO3)C(=O)[C@H](C)[C@@H](O)[C@@H](C)[C@@H](C)OC(=O)[C@@H]2C)O[C@@H](C)[C@@H]1O [oleandomycin],Resistance/sensitivity of culture A80438,[1]; 15 units,sensitive
CC1(C)S[C@@H]2[C@H](NC(=O)Cc3ccccc3)C(=O)N2[C@H]1C(=O)O [penicillin G],Resistance/sensitivity of culture A80438,[1]; 10 units,resistant
CO[C@H]1/C=C/O[C@@]2(C)Oc3c(C)c(O)c4c(O)c(c(/C=N/N5CCN(C)CC5)c(O)c4c3C2=O)NC(=O)/C(C)=C\C=C\[C@H](C)[C@H](O)[C@@H](C)[C@@H](O)[C@@H](C)[C@H](OC(C)=O)[C@@H]1C [rifampin],Resistance/sensitivity of culture A80438,[1]; 5 μg,sensitive
[H]/N=C(/N)N[C@H]1[C@H](O)[C@@H](O)[C@H](O[C@@H]2O[C@@H](C)[C@](O)(C=O)[C@H]2O[C@@H]2O[C@@H](CO)[C@H](O)[C@@H](O)[C@@H]2NC)[C@@H](N/C(N)=N\[H])[C@@H]1O [streptomycin],Resistance/sensitivity of culture A80438,[1]; 10 μg,sensitive
same,Streptomycin inhibition,S. bobili,+
same,Streptomycin inhibition,[2],+
CN(C)C1C(=O)C(C(N)=O)=C(O)C2(O)C(=O)C3=C(O)c4c(O)cccc4C(C)(O)C3CC12 (stereo not shown) [tetracycline],Resistance/sensitivity of culture A80438,[1]; 30 μg,sensitive
NC[C@H]1O[C@H](O[C@H]2[C@H](O)[C@@H](O[C@H]3O[C@H](CO)[C@@H](O)[C@H](N)[C@H]3O)[C@H](N)C[C@@H]2N)[C@H](N)C[C@@H]1O [tobramycin],Resistance/sensitivity of culture A80438,[1]; 10 μg,sensitive
CN[C@H](CC(C)C)C(=O)N[C@H]1C(=O)N[C@@H](CC(N)=O)C(=O)N[C@H]2C(=O)N[C@H]3C(=O)N[C@H](C(=O)N[C@H](C(=O)O)c4cc(O)cc(O)c4-c4cc3ccc4O)[C@H](O)c3ccc(c(Cl)c3)Oc3cc2cc(c3O[C@@H]2O[C@H](CO)[C@@H](O)[C@H](O)[C@H]2O[C@H]2C[C@](C)(N)[C@H](O)[C@H](C)O2)Oc2ccc(cc2Cl)[C@H]1O [vancomycin],Resistance/sensitivity of culture A80438,[1]; 30 μg,sensitive
gentamicin,Resistance/sensitivity of culture A80438,[1]; 10 μg,sensitive
lysozyme,Resistance/sensitivity of culture A80438 to lysozyme,[3],sensitive
neomycin,Resistance/sensitivity of culture A80438,[1]; 30 μg,sensitive

# Source: patent US4824863A, “Antibiotic A80438” (Eli Lilly and Company, priority 1985, dated 1989)
